The molecules below were run on Hepatotoxicity (assay: Human drug-induced liver injury (DILI) modelling dataset from Ekins et al). Conditions: not given.

Structure (SMILES) | Hepatotoxicity
Nc1nc(=O)[nH]cc1F [FLUCYTOSINE] | DILI positive (training set)
CC(=O)OCC(=O)[C@@]1(O)CC[C@H]2[C@@H]3CCC4=CC(=O)CC[C@]4(C)[C@@]3(F)[C@@H](O)C[C@@]21C [FLUDROCORTISONE ACETATE] | DILI negative (training set)
O=C(O)c1ccccc1Nc1cccc(C(F)(F)F)c1 [FLUFENAMIC ACID] | DILI negative (test set)
CCOC(=O)c1ncn2c1CN(C)C(=O)c1cc(F)ccc1-2 [FLUMAZENIL] | DILI negative (training set)
C[C@H](C(=O)O)c1ccc2oc(-c3ccc(F)cc3)nc2c1 [FLUNOXAPROFEN] | DILI negative (test set)
O=c1[nH]cc(F)c(=O)[nH]1 [FLUOROURACIL] | DILI positive (test set)
CC(C(=O)O)c1ccc(-c2ccccc2)c(F)c1 (stereo not drawn) [FLURBIPROFEN] | DILI positive (training set)
CC(C)C(=O)Nc1ccc([N+](=O)[O-])c(C(F)(F)F)c1 [FLUTAMIDE] | DILI positive (training set)
COCCCC/C(=N\OCCN)c1ccc(C(F)(F)F)cc1 [FLUVOXAMINE] | DILI positive (training set)
Nc1nc2ncc(CNc3ccc(C(=O)N[C@@H](CCC(=O)O)C(=O)O)cc3)nc2c(=O)[nH]1 [FOLIC ACID] | DILI negative (training set)
O=C(O)P(=O)(O)O [FOSCARNET] | DILI negative (test set)
O=C1OCCN1/N=C/c1ccc([N+](=O)[O-])o1 [FURAZOLIDONE] | DILI positive (training set)
NCC1(CC(=O)O)CCCCC1 [GABAPENTIN] | DILI negative (training set)
CC[N+](CC)(CC)CCOc1cccc(OCC[N+](CC)(CC)CC)c1OCC[N+](CC)(CC)CC.[I-].[I-].[I-] [GALLAMINE TRIETHIODIDE] | DILI negative (training set)
COc1c(N2CCNC(C)C2)c(F)cc2c(=O)c(C(=O)O)cn(C3CC3)c12 (stereo not drawn) [GATIFLOXACIN] | DILI negative (training set)
COc1cc2ncnc(Nc3ccc(F)c(Cl)c3)c2cc1OCCCN1CCOCC1 [GEFITINIB] | DILI positive (test set)
Cc1ccc(C)c(OCCCC(C)(C)C(=O)O)c1 [GEMFIBROZIL] | DILI positive (training set)
Cc1ccc(S(=O)(=O)NC(=O)NN2CC3CCCC3C2)cc1 (stereo not drawn) [GLICLAZIDE] | DILI negative (training set)
CCC1=C(C)CN(C(=O)NCCc2ccc(S(=O)(=O)NC(=O)N[C@H]3CC[C@H](C)CC3)cc2)C1=O [GLIMEPIRIDE] | DILI negative (training set)
N[C@H]1C(O)O[C@H](CO)[C@@H](O)[C@@H]1O (stereo partly drawn) [GLUCOSAMINE] | DILI positive (training set)
CCC1(c2ccccc2)CCC(=O)NC1=O (stereo not drawn) [GLUTETHIMIDE] | DILI positive (test set)
COC1=CC(=O)C[C@@H](C)[C@]12Oc1c(Cl)c(OC)cc(OC)c1C2=O [GRISEOFULVIN] | DILI positive (training set)
N=C(N)NCCN1CCCCCCC1.N=C(N)NCCN1CCCCCCC1.O=S(=O)(O)O [GUANETHIDINE SULFATE] | DILI positive (test set)

Structure (SMILES) | Hepatotoxicity
Oc1c(Cl)cc(Cl)c(Cl)c1Cc1c(O)c(Cl)cc(Cl)c1Cl [HEXACHLOROPHENE] | DILI positive (test set)
CCN(CC)CCNc1ccc(CO)c2sc3ccccc3c(=O)c12 [HYCANTHONE] | DILI positive (training set)
NN [HYDRAZINE] | DILI positive (test set)
NS(=O)(=O)c1cc2c(cc1Cl)NCNS2(=O)=O [HYDROCHLOROTHIAZIDE] | DILI positive (training set)
C[C@]12CCC(=O)C=C1CC[C@@H]1[C@@H]2[C@@H](O)C[C@@]2(C)[C@H]1CC[C@]2(O)C(=O)CO [HYDROCORTISONE] | DILI negative (training set)
NC(=O)NO [HYDROXYUREA] | DILI positive (training set)
CC(C)Cc1ccc(CC(=O)O)cc1 [IBUFENAC] | DILI positive (test set)
CC(C)Cc1ccc(C(C)C(=O)O)cc1 (stereo not drawn) [IBUPROFEN] | DILI negative (test set)
CC(=O)[C@]1(O)Cc2c(O)c3c(c(O)c2[C@@H](O[C@H]2C[C@H](N)[C@H](O)[C@H](C)O2)C1)C(=O)c1ccccc1C3=O.Cl [IDARUBICIN HYDROCHLORIDE] | DILI negative (training set)
O=c1[nH]c(=O)n([C@H]2C[C@H](O)[C@@H](CO)O2)cc1I [IDOXURIDINE] | DILI positive (training set)
O=P1(NCCCl)OCCCN1CCCl (stereo not drawn) [IFOSFAMIDE] | DILI positive (test set)
CN(C)CCCN1c2ccccc2CCc2ccccc21.Cl [IMIPRAMINE HYDROCHLORIDE] | DILI positive (training set)
Nc1cc(-c2ccncc2)c[nH]c1=O [INAMRINONE] | DILI positive (training set)
CC1(c2ccccc2)Cc2cc(OCC(=O)O)c(Cl)c(Cl)c2C1=O (stereo not drawn) [INDACRINONE] | DILI positive (test set)
CC(C)(C)NC(=O)[C@@H]1CN(Cc2cccnc2)CCN1C[C@@H](O)C[C@@H](Cc1ccccc1)C(=O)N[C@H]1c2ccccc2C[C@H]1O.O=S(=O)(O)O [INDINAVIR SULFATE] | DILI negative (test set)
COc1ccc2c(c1)c(CC(=O)O)c(C)n2C(=O)c1ccc(Cl)cc1 [INDOMETHACIN] | DILI positive (training set)
O[C@H]1[C@H](O)[C@@H](O)[C@H](O)[C@@H](O)[C@H]1O [INOSITOL] | DILI negative (test set)
C[C@H](O)C(=O)Nc1c(I)c(C(=O)NC(CO)CO)c(I)c(C(=O)NC(CO)CO)c1I [IOPAMIDOL] | DILI positive (test set)
CC(C)NNC(=O)c1ccncc1 [IPRONIAZID] | DILI positive (test set)
CCCCC1=NC2(CCCC2)C(=O)N1Cc1ccc(-c2ccccc2-c2nnn[nH]2)cc1 [IRBESARTAN] | DILI negative (test set)
Cc1cc(C(=O)NNCc2ccccc2)no1 [ISOCARBOXAZID] | DILI negative (test set)
NNC(=O)c1ccncc1 [ISONIAZID] | DILI positive (training set)
O=[N+]([O-])O[C@H]1CO[C@H]2[C@@H]1OC[C@H]2O[N+](=O)[O-] [ISOSORBIDE DINITRATE] | DILI negative (test set)

Structure (SMILES) | Hepatotoxicity
CC1=C(/C=C/C(C)=C/C=C/C(C)=C\C(=O)O)C(C)(C)CCC1 [ISOTRETINOIN] | DILI positive (training set)
Cc1cc(NC(=O)C2=C(O)c3ccccc3S(=O)(=O)N2C)no1 [ISOXICAM] | DILI negative (test set)
CC(COc1ccccc1)NC(C)C(O)c1ccc(O)cc1.Cl (stereo not drawn) [ISOXSUPRINE HYDROCHLORIDE] | DILI negative (training set)
CC(=O)N1CCN(c2ccc(OCC3COC(Cn4ccnc4)(c4ccc(Cl)cc4Cl)O3)cc2)CC1 (stereo not drawn) [KETOCONAZOLE] | DILI positive (test set)
CC(C(=O)O)c1cccc(C(=O)c2ccccc2)c1 (stereo not drawn) [KETOPROFEN] | DILI negative (test set)
NC(CO)(CO)CO.O=C(c1ccccc1)c1ccc2n1CCC2C(=O)O (stereo not drawn) [KETOROLAC TROMETHAMINE] | DILI positive (training set)
CN1CCC(=C2c3ccccc3CC(=O)c3sccc32)CC1 [KETOTIFEN] | DILI negative (training set)
CC(CCc1ccccc1)NCC(O)c1ccc(O)c(C(N)=O)c1 (stereo not drawn) [LABETALOL] | DILI positive (training set)
Nc1ccn([C@@H]2CS[C@H](CO)O2)c(=O)n1 [LAMIVUDINE] | DILI negative (training set)
CS(=O)(=O)CCNCc1ccc(-c2ccc3ncnc(Nc4ccc(OCc5cccc(F)c5)c(Cl)c4)c3c2)o1 [LAPATINIB] | DILI positive (test set)
Cc1oncc1C(=O)Nc1ccc(C(F)(F)F)cc1 [LEFLUNOMIDE] | DILI positive (training set)
Nc1nc(=O)c2c([nH]1)NCC(CNc1ccc(C(=O)N[C@@H](CCC(=O)[O-])C(=O)[O-])cc1)N2C=O.[Ca+2] (stereo partly drawn) [LEUCOVORIN CALCIUM] | DILI negative (test set)
N[C@@H](Cc1ccc(O)c(O)c1)C(=O)O [LEVODOPA] | DILI negative (training set)
C[C@H]1COc2c(N3CCN(C)CC3)c(F)cc3c(=O)c(C(=O)O)cn1c23.C[C@H]1COc2c(N3CCN(C)CC3)c(F)cc3c(=O)c(C(=O)O)cn1c23.O [LEVOFLOXACIN] | DILI negative (training set)
N[C@@H](Cc1cc(I)c(Oc2ccc(O)c(I)c2)c(I)c1)C(=O)O [LIOTHYRONINE] | DILI negative (test set)
NCCCC[C@H](N[C@@H](CCc1ccccc1)C(=O)O)C(=O)N1CCC[C@H]1C(=O)O [LISINOPRIL ANHYDROUS] | DILI positive (training set)
C[C@H](CCC(=O)O)[C@H]1CC[C@H]2[C@@H]3CC[C@@H]4C[C@H](O)CC[C@]4(C)[C@H]3CC[C@]12C [LITHOCHOLIC ACID] | DILI positive (training set)
CN(C)C(=O)C(CCN1CCC(O)(c2ccc(Cl)cc2)CC1)(c1ccccc1)c1ccccc1.Cl [LOPERAMIDE HYDROCHLORIDE] | DILI negative (training set)
N[C@@H](C(=O)N[C@@H]1C(=O)N2C(C(=O)O)=C(Cl)CC[C@H]12)c1ccccc1 [LORACARBEF ANHYDROUS] | DILI negative (test set)
CCCCc1nc(Cl)c(CO)n1Cc1ccc(-c2ccccc2-c2nn[nH]n2)cc1 [LOSARTAN] | DILI positive (test set)
Cc1ccc(Nc2c(F)cccc2Cl)c(CC(=O)O)c1 [LUMIRACOXIB] | DILI positive (test set)
O=C(O)/C=C\C(=O)O [MALEIC ACID] | DILI positive (training set)

Same assay, conditions: Liver

Structure (SMILES) | Hepatotoxicity
CC(C)n1c(/C=C/C(O)CC(O)CC(=O)O)c(-c2ccc(F)cc2)c2ccccc21 (stereo not drawn) [FLUVASTATIN] | DILI negative (training set)
O=C(OCC(O)CO)c1ccccc1Nc1ccnc2cc(Cl)ccc12 (stereo not drawn) [GLAFENINE] | DILI positive (training set)
Cc1c(F)c(N2CCNC(C)C2)cc2c1c(=O)c(C(=O)O)cn2C1CC1 (stereo not drawn) [GREPAFLOXACIN] | DILI positive (test set)
CC(C)NCC(O)c1ccc(O)c(O)c1.Cl (stereo not drawn) [ISOPROTERENOL HYDROCHLORIDE] | DILI negative (training set)
CCN(CC)CC(=O)Nc1c(C)cccc1C [LIDOCAINE] | DILI negative (training set)
